Values of other authors in patent US20070077258A1 (priority 2005, published 2007).
Like-named read-outs stand apart in the source and are kept apart here.

Assays:
[1] = 3 grams of glutathione by oral ingestion
[2] = test system: influenza virus in Madin-Darby Canine Kidney (MDCK) Cells
[3] = test system: influenza virus in Normal Human Small Airway Epithelial Cells (SAEC)

## N[C@@H](CCC(=O)N[C@@H](CS)C(=O)NCC(=O)O)C(=O)O [glutathione, gamma-glutamyl-cysteinyl-glycine]
[1]
  effect on plasma glutathione levels: does not elevate plasma glutathione levels
[2]
  replication of flu virus: prevention of replication of flu virus was demonstrated
1500 mg /m2
  tolerability: well tolerated
2500 mg daily for 5 days
  tolerability: well tolerated
In vivo
  toxicity reported: No toxicity
[3]
  replication of flu virus: prevention of replication of flu virus was demonstrated
